Measured values: patent US7186699B2, “Method for treating cancer by vector-mediated delivery of one or more anti-angiogenic or pro-apoptotic genes” (Cell Genesys, Inc., priority 2003, dated 2007)
Where a SMILES comes first, the peptide text is derived from it. The star is where a group is joined. Cbz = O=C(OCc1ccccc1)*; CH2F = FC*

Columns and labels:
[1] = system: Caspase 8; test: Caspase 8 protease activity in Colo-205 cell lysates (IETD-pNA); assay type: cell-based, human
Procedure: (§1) In certain assays, cells are pre-treated with 20 uM of the pan-caspase inhibitor, ZVAD-fmk (RnD Systems), 1 hr prior to stimulation with TRAIL or control agents.

[2] = system: Colo-205 cells; test: DNA fragmentation (apoptosis) ELISA in Colo-205 cells; assay type: cell-based, human
Text: Apoptosis, e.g. […]
DNA fragmentation is quantitated by a photometric enzyme-immunoassay (Cell Death Detection ELISA Assay, Roche) for measuring cytoplasmic histone-associated nucleosomes according to the manufacturer's protocols. % Apoptosis is defined as relative increase in DNA fragmentation in treated vs. control cells calculated by [O.D. Treated−background]/[Maximal O.D.−Background].

[3] = system: Caspase 3; test: Caspase 3 protease activity in Colo-205 cell lysates (DEVD-pNA); assay type: cell-based, human
Procedure: as §1

[4] = system: colorectal tumor cell lines (HT29, HCT-116, Colo-205); test: Combination of sTRAIL and COX inhibitors in colorectal tumor cell lines; assay type: cell-based, human; settings: combined with high doses of SC-560 and Celebrex
Procedure: (§2) The specificity of TRAIL-induced cell death was tested in a variety of tumor and normal cells. […] The combinatorial cytotoxic effects of TRAIL and chemotherapy were tested in a panel of tumor cells.

[5] = system: HT29 colorectal tumor cells; test: Chemosensitization of HT29 colon cancer cells to TRAIL; assay type: cell-based, human
Procedure: FIGS. 17A–C show augmentation of sTRAIL-induced HT29 colon cancer cytotoxicity by chemotherapy sensitization.
(§3) Tumor cells are plated at 1e4 cells per well in 96-well plates and incubated overnight at 37 C after which time the cells are left untreated or treated with the indicated sub-toxic doses of chemotherapeutic agents. After 24 hr, the cells are left untreated, or treated with sub-toxic doses of recombinant human TRAIL or AAV-produced TRAIL for an additional 24, 48 or 72 hr. Cell viability is evaluated using a tetrazolium-salt (WST-8) based proliferation assay (Cell Counting Kit-8, Dojindo Laboratories, Japan) according to the manufacturer's recommendations. % Cytotoxicity/Growth Inhibition was defined as [1-(OD treated−background)/(OD untreated−background)×100].
as §2

[6] = system: Colo-205 cells; test: Colo-205 growth inhibition/viability, WST-8 tetrazolium assay; assay type: cell-based, human; settings: 24, 48 and 72 hr treatment, FIG. 10B/10C
Procedure: Cell proliferation was evaluated using a WST-8-based tetrazolium salt viability assay using the formulas: % Viability=[OD (sTRAIL) treated−background]/[OD (GFP) untreated−background]×100 and % Growth Inhibition=[1-(OD treated−background)/OD untreated−background)]×100.

[7] = system: A549 lung carcinoma, U87MG glioma, MCF7 breast carcinoma, PC-3 prostate carcinoma; test: Chemosensitization of tumor cells to TRAIL; assay type: cell-based, human; settings: A549+cisplatin, U87MG+etoposide, MCF-7+doxorubicin, PC-3+doxorubicin; 24 hr pre-treatment with sub-toxic doses, then 24 hr TRAIL
Procedure: FIGS. 16A–D show augmentation of sTRAIL-induced tumor cell cytotoxicity by chemotherapy sensitization 1 e4 tumor cells were pretreated with genotoxic agents for 24 hr to sensitize, then subsequently treated with sTRAIL for 24 hr. Viability was measured by WST-8 tetrazolium salt assay after 24 hr sTRAIL treatment and % Growth inhibition=[1-(OD treated−background)/(OD untreated−background)×100].
as §3, §2

[8] = system: human tumor cell lines; test: Sensitivity of tumor cell lines to TRAIL, WST-8 cytotoxicity assay; assay type: cell-based; settings: human tumor cell lines from diverse tissues; 24 hr; FIG. 14
Procedure: Briefly, 1e4 tumor cells (ATCC), or normal primary cells (BioWhittaker), are seeded in one well of a 96-well titer plate and incubated overnight at 37° C. Cells are then treated with the test or control agents for 24, 48 or 72 hr. Following treatment, cell viability is evaluated using a tetrazolium-salt (WST-8) based proliferation assay (Cell Counting Kit-8, Dojindo Laboratories, Japan) according to the manufacturer's recommendations. % Cytotoxicity/Growth inhibition is defined as [1-(OD treated−background)/(OD untreated−background)×100].
as §2

[9] = system: VEGF induced vessel sprouting; test: Chick chorioallantoic membrane (CAM) assay; assay type: in vivo; settings: 25 ng VEGF with 0.1, 1 and 10 ng protein from conditioned media; 72 hr
Procedure: FIG. 4 illustrates the results of experiments that show PF4 and PF4(DLR) reduce VEGF stimulated angiogenesis in the chick chorioallantoic membrane (CAM) assay. Hyrdocortisone-containing filter disks were soaked with 25 ng of VEGF together with 0.1 ng, 1 ng and 10 ng of PF-4 or PF-4(DLR) derived from conditioned media. AAV-null, 293 cell supernatant and an internal PF-4 protein standard, PF4-Blast, were included in the assay as separate controls. Filter disks were aseptically placed on top of the chorioallantoic membranes of 11 day chick embryos. 72 hours after incubation the CAMs were surgically removed, fixed and the number of vessel sprouts determined by stereomicroscopy.
Hydrocortisone-containing filter discs are soaked with 25 ng Vascular Endothelium Growth Factor (VEGF) (R&D Systems, Minneapolis, Minn.) together with the indicated doses of conditioned media from control or vector transduced cells, and aseptically placed on top of the chorioallantoic membranes of 11 day old chick embryos. After 72 hr incubation, the CAMs are surgically removed, fixed and the discs are analyzed for VEGF-induced angiogenesis by stereomicroscopy. The mean number (+/−SEM) of branch points occurring in the new blood vessel sprouts beneath the applied filter disc from the treated CAMs is enumerated from multiple (n=8–10) samples. […]

[10] = Colo-205 cells pre-incubated with 20 uM inhibitor
[11] = Colo-205 cells, 4 hr incubation

Question: Which results are given for `COC(=O)C[C@H](NC(=O)[C@H](C)NC(=O)[C@@H](NC(=O)OCc1ccccc1)C(C)C)C(=O)CF` [ZVAD-fmk] (Cbz-Val-Ala-Asp(OMe)-CH2F)?
Answer: Effect on TRAIL-induced caspase 8 protease activity [1, 10]: blocking of TRAIL-induced caspase protease activity; Effect on sTRAIL induced DNA fragmentation ([2]; Colo-205 cells pre-incubated with increasing amounts of inhibitor, 6 hr after sTRAIL treatment): prevents sTRAIL induced DNA fragmentation in a dose-dependent manner; Effect on TRAIL-induced caspase 3 protease activity [3, 10]: blocking of TRAIL-induced caspase protease activity

Question: Which results are given for TRAIL?
Answer: Cytotoxic activity combined with cyclo-oxygenase-2 inhibitors [4]: synergistic cytotoxic activity; Cytotoxic effect combined with chemotherapy ([5]; combined with sub-toxic doses of doxorubicin, cisplatin, or camptothecin): synergistic cytotoxic effect; Cell death with TRAIL alone ([5]; sub-optimal doses of TRAIL): refractory to cell death

Question: With “recombinant human TRAIL: recombinant human TRAIL purchased from a commercial vendor (RnD Systems)” as the molecule, how does the “50% effective dose of Colo-205 growth inhibition” value [6] read?
Answer: approximately 0.5 ng/ml

Question: And the “Induction of caspase 8 protease activity” value [1, 11]?
Answer: Dose-dependent induction

Question: What about the “50% effective dose (ED50) for induction of apoptosis (DNA fragmentation)” value ([2]; Colo-205 cells, 6 hr incubation (sTRAIL 6, 16 and 24 hr), FIG. 11) of the same molecule?
Answer: approximately 1 ng/ml

Question: And the “Induction of caspase 3 protease activity” value [3, 11]?
Answer: Dose-dependent induction

Question: What about the “Cytotoxic effect combined with chemotherapy” value [7] of the same molecule?
Answer: augmented cytotoxic effect

Question: And the “Cytotoxicity in tumor cell lines” value [8]?
Answer: cytotoxicity was observed in a wide spectrum of human tumor cell lines

B1: PF-4: platelet factor-4 from conditioned media of transfected 293 cells (SEQ ID NO:7) (protein)
chain: MSSAAGFCASRPGLLFLGLLLLPLVVAFASAEAEEDGDLQCLCVKTTSQVRPRHITSLEVIKAGPHCPTAQLIATLKNGRKICLDLQAPLYKKIIKKLLES
modifications: platelet factor-4
Question: Which “VEGF induced vessel sprouting” value [9] does the source give for B1 here?
Answer: blockage of VEGF induced vessel sprouting

B2: PF-4(DLR): platelet factor-4 with the DLR mutation (SEQ ID NO:9) from conditioned media (protein)
chain: MSSAAGFCASRPGLLFLGLLLLPLVVAFASAEAEEDGDLQCLCVKTTSQVRPRHITSLEVIKAGPHCPTAQLIATLKNGRKICLDLRAPLYKKIIKKLLES
modifications: platelet factor-4 with DLR mutation
Question: How did the “VEGF induced vessel sprouting” value [9] turn out when B2 was run?
Answer: blockage of VEGF induced vessel sprouting
